Results taken from patent publication US12629370B2, “Treatment of prostate cancer” (Sumitomo Pharma Co., Ltd., priority 2016, dated 2026).
“And” between values parts separate entries of the source, which are not always exact repeats. Identical values can stand only once.

Columns and labels:
Type in all cases: in vivo, human
[1] = system: serum testosterone; assay: Example 6: serum testosterone (CLIA) in men with non-metastatic prostate cancer, Parts A and B
[2] = system: serum testosterone; assay: Example 7: serum testosterone lowering in healthy men; conditions: for mean serum testosterone at end of 16 days: baseline 10.40 nmol/L
Method: FSH, DHT, and insulin-like growth factor 1 (IGF-1; Parts 3 and 4 only) were measured in a subset of samples. Serum testosterone was assayed using a conventional immunoassay for screening (LLOQ=0.4 nmol/L). A validated LC/MS/MS method, with an LLOQ of 0.173 nmol/L and a ULOQ of 10.425 nmol/L, was used for all subsequent baseline (i.e., the subject's serum hormone levels prior to treatment commencing) and postdose measurements.
Pharmacodynamic measures included serum concentrations of testosterone, DHT, LH, and FSH. In Part 2, the number and percentage of subjects with average serum testosterone levels less than 0.69 nmol/L occurring during the second week of dosing were tabulated. In Parts 3 and 4, the number and percentage of subjects with serum testosterone levels consistently less than 0.69 nmol/L from Day 14 through Day 28 were tabulated.

[3] = system: patients with advanced prostate cancer; assay: Example 8: quality of life, Aging Male Survey (AMS); conditions: for AMS total score, mean: Baseline
Method: Quality of life (QoL) was assessed throughout the study and the follow-up period. The 25-item Prostate Cancer Module of the European Organization for Research and Treatment of Cancer Quality of Life Questionnaire (EORTC QLQ-PR25), Aging Male Survey (AMS), and core 30-item EORTC Quality of Life Questionnaire (EORTC QLQ-C30) were completed at screening, day 1 of weeks 5, 13, 25, 37, and 49, and, if applicable, at the follow-up visits.

[4] = system: serum testosterone; assay: Example 9: serum testosterone, castration and recovery, neoadjuvant/adjuvant ADT to EBRT, versus degarelix
Method: Eligible male patients were aged ≥18 years with a histologically confirmed diagnosis of localized, intermediate-risk prostate cancer, for whom 6-month neoadjuvant and adjuvant androgen deprivation therapy (ADT) to external beam radiation therapy (EBRT) was indicated. The criteria for establishing intermediate-risk prostate cancer included the presence of one of the following, without any high-risk feature: T2b-T2c disease, Gleason score 7, or prostate-specific antigen (PSA) 10-20 ng/mL. […] Based on investigator discretion and clinical assessment of the patient's overall medical and disease status, participation was allowed for older patients with high-risk disease (e.g., based on Gleason score or tumor status) who were deemed likely to benefit from 6 months of neoadjuvant/adjuvant ADT.
Both treatment arms received treatment for 24 weeks. […] EBRT began no later than day 1, week 17. […]
Samples for testosterone, luteinizing hormone (LH), FSH, and PSA concentrations were taken at screening, on day 1 of the first week (additionally days 2 and 4 for testosterone and LH), and on day 1 of weeks 2, 3, 5, 9, 13, 17, 21, 25, 29, 33, and 37 thereafter.

[5] = subjects with at least 24 weeks of treatment

## CONC(=O)Nc1ccc(-c2sc3c(c2CN(C)C)c(=O)n(-c2ccc(OC)nn2)c(=O)n3Cc2c(F)cccc2F)cc1 [Compound 1, N-(4-(1-(2,6-difluorobenzyl)-5-((dimethylamino)methyl)-3-(6-methoxy-3-pyridazinyl)-2,4-dioxo-1,2,3,4-tetrahydrothieno[2,3-d]pyrimidin-6-yl)phenyl)-N′-methoxyurea]
[1]; Part A, load dose then maintenance 80, 120 or 160 mg QD
  time for mean serum testosterone to fall below medical castration levels (below 50 ng/dL): up to 3 days
[1]; Part A, maintained up to 3 days after last dose on Day 28
  when serum testosterone achieved medical castration levels in all subjects: between Day 2 and Day 14
[1]; Part B, 320 mg load then 80 or 120 mg QD
  time for mean serum testosterone to be suppressed below medical castration levels (below 50 ng/dL): ≤ 4 days
[1]; Part B, maintained throughout evaluation period
  when serum testosterone reached medical castration levels in all subjects: between Day 2 and Week 3
[2]; 20 mg QD, 14 days
  suppression of serum LH and testosterone during the second week: insufficient in maintaining adequate suppression
[2]; 40 mg QD, 28 days
  castration outcome: ineffective in maintaining castration between Days 14 and 28
[2]; 60 mg QD, 28 days
  castration outcome: intermediate to those of 40 and 80 mg
[2]; 80 mg once daily
  time to reach castrate level: up to 21 days
[2]; 320 mg day 1, 160 mg day 2, 40 mg day 3 to 28
  castration outcome: did not maintain castrate level
[2]; 360 mg Day 1 and 40 mg day 2 to 14
  castration outcome: rapid castration level and sustained castration level
[2]; 360 mg single dose
  time to castrate levels (<50 ng/dL): ≤ 24 h
[2]; 40 to 180 mg daily (14 days) and 80 to 160 mg daily (28 days)
  effective medical castration: consistently achieved
[2]; 14 days at 40, 80 and 180 mg
  profound castration threshold (average serum testosterone <0.69 nmol/L): achieved
[2]; 28 days, 160 mg (Part 3) and 80 mg (Part 4)
  castration during third and fourth weeks: effective at achieving medical (<1.73 nmol/L) and profound (<0.69 nmol/L) castration
[2]; Part 2, 80 mg
  mean serum testosterone at end of 16 days: 0.3565 nmol/L
[2]; Part 2, 180 mg
  mean serum testosterone at end of 16 days: 0.4320 nmol/L
[2]; in vivo
  minimal fully effective / recommended maintenance dose for sustained medical castration: ≥ 80 mg QD
[2]; maintenance doses of 80, 160 and 180 mg QD
  effective medical castration: consistently achieved
[2]; single doses of 80, 120, 180 and 360 mg
  duration of mean serum testosterone suppression: maintained through 36 hours postdose
[3]; 80 mg QD
  AMS total score, mean: 29.8
[3]; 80 mg QD, EOS
  AMS total score after treatment, mean percent change from baseline: 21.9%
[3]; 80 mg QD, EOT
  AMS total score after treatment, mean percent change from baseline: 30.5%
[3]; 80 mg QD, Follow-up
  AMS total score after treatment, mean percent change from baseline: 31.8%
[3]; 80 mg QD, W5, D1
  AMS total score, mean percent change from baseline: 3.9%
[3]; 80 mg QD, W13, D1
  AMS total score, mean percent change from baseline: 14.8%
[3]; 80 mg QD, W25, D1
  AMS total score, mean percent change from baseline: 20.3%
[3]; 80 mg QD, W49, D1
  AMS total score, mean percent change from baseline: 30.1%
[3]; 120 mg QD
  AMS total score, mean: 29.9
[3]; 120 mg QD, EOS
  AMS total score after treatment, mean percent change from baseline: 25.3%
[3]; 120 mg QD, Follow-up
  AMS total score after treatment, mean percent change from baseline: 25.2%
[3]; 120 mg QD, W5, D1
  AMS total score, mean percent change from baseline: 10.9%
[3]; 120 mg QD, W13, D1
  AMS total score, mean percent change from baseline: 17.3%
[3]; 120 mg QD, W25, D1
  AMS total score, mean percent change from baseline: 20.4%
[3]; 120 mg QD, W37, D1
  AMS total score, mean percent change from baseline: 24.5%
[3]; 120 mg QD, W49, D1
  AMS total score, mean percent change from baseline: 24.4%
[3]; after discontinuation of 48 weeks of treatment
  QOL (AMS, EORTC QLQ-PR25 sexual activity) during 12 week recovery: appeared to improve more in the Compound 1 group than the leuprorelin group
[4]; 120 mg QD after 320 mg load
  visit by which average serum testosterone decreased below medical castration threshold of 50 ng/dL: Day 4
  visit by which average serum testosterone decreased below profound castration threshold of 20 ng/dl: Week 5 Day 1
[4]; 4 weeks from last dose
  Kaplan-Meier estimate (95% CI) of testosterone recovery, probability of event: 0.03 (0.00.0.08)
  Percent recovery (95% CI) to baseline testosterone or >280 ng/dL: 3.1 (0.4.10.7) %
[4]; 8 weeks from last dose
  Kaplan-Meier estimate (95% CI) of testosterone recovery, probability of event: 0.24 (0.13.0.34)
  Percent recovery (95% CI) to baseline testosterone or >280 ng/dL: 23.1 (13.5.35.2) %
[4]; 12 weeks from last dose
  Kaplan-Meier estimate (95% CI) of testosterone recovery, probability of event: 045 (0.33.0.58)
[4]; Baseline
  Median testosterone: 355.7 ng/dL
  Testosterone Median: 12.350 nmol/L
[4]; Baseline, Compound 1 120 mg QD or degarelix 80 mg Q4W
  Testosterone Mean (Std Dev): 14.067 (6.7100) nmol/L
[4]; EOS
  Testosterone Median: 8.920 nmol/L
[4]; EOT
  Testosterone Mean (Std Dev): 5.117 (5.7671) nmol/L
  Testosterone Median: 3.260 nmol/L
[4]; Follow-Up
  Testosterone Mean (Std Dev): 9.889 (6.3879) nmol/L
  Testosterone Median: 8.275 nmol/L
[4]; Week 1 Day 4
  time after start of dosing at which serum testosterone was on average below medical castration levels: 72 h
[4]; Week 24
  Median testosterone: 8.1 ng/dL
[4]; Week 25, Day 1
  Testosterone Mean (Std Dev): 0.395 (0.5584) nmol/L
  Testosterone Median: 0.280 nmol/L
[4]; Week 28/EOT visit
  Median testosterone: 93.9 ng/dL
[4]; Week 32/follow-up
  Median testosterone: 238.3 ng/dL
[4]; Week 36/EOS
  Median testosterone: 256.9 ng/dL
[4]; by 8 weeks of follow-up
  patients recovered to baseline testosterone or >280 ng/dL: Nearly half
[4]; end of 12-week follow-up
  patients recovered to baseline testosterone or greater than 280 ng/dL: approximately half
[4]; follow-up visit and end of study
  mean serum testosterone after removal of therapy: approximately 10 nmol/L
[4]; in vivo
  Median time to medical castration (≤50 ng/dL): 4 days
  Median time to profound castration (≤20 ng/dL): 15 days
[4]; over 24 weeks, overall
  medical castration rate (less than 50 ng/dL): 95%
  profound castration rate (less than 20 ng/dL): 82%
[4]; overall safety population
  Testosterone recovery (baseline or >280 ng/dL): number with events: 34 (52) n (%)
  Testosterone recovery: number censored: 30 (46) n (%)
  Time to testosterone recovery, 25th percentile (95% CI): 57 (45.62) days
  Time to testosterone recovery, 75th percentile (95% CI): 127 (93.127) days
  Time to testosterone recovery, Median (95% CI): 91 (62, 127) days and 91 (62.127) days
[4]; patients treated for at least 24 weeks
  median (95% CI) number of days to testosterone recovery: 86 (58, 93) days
[4]; [5]
  medical castration rate (less than 50 ng/dL): 98%
  profound castration rate (less than 20 ng/dL): 84%
